Test results from patent US10800757B2, “Inhibitors of TRPC6” (Boehringer Ingelheim International GmbH, priority 2017, dated 2020).
pIC50: −log10 of the molar value.

Target: TRPC6 (Homo sapiens (Human), UniProt Q9Y210)
Test: High throughput screening assay: fluorescent calcium (Fluo4/AM) assay of TRPC6 channel activation by GSK1702934A in HEK293/TREx cells
Assay type: cell-based
Settings: HEK293/TREx cells stably transfected with TRPC6; agonist GSK1702934A; 7 concentrations 20 μM to 0.027 μM, triplicate
Description: This screening assay measures TRPC6 (transient receptor potential cation channel, subfamily C, member 6) ion channel activation via addition either of the commercially available DAG ligand analogue OAG (1-oleoyl-2-acetyl-sn-glycerol) or of the TRPC6 agonist 1-[1-(4,5,6,7,8-pentahydrocyclohepta[2,1-d]thiophen-2-ylcarbonyl)-4-piperidyl]-3-hydrobenzimidazol-2-one (GSK1702934A). The assay utilizes a FLIPR fluorescent calcium sensor 4-(6-Acetoxymethoxy-2,7-difluoro-3-oxo-9-xanthenyl)-4′-methyl-2,2′-(ethylenedioxy)dianiline-N,N,N′,N′-tetraacetic acid tetrakis(acetoxymethyl) ester (Fluo4/AM) […]. Changes (increases) in intracellular membrane calcium concentration potential as measured by the fluorescent signal increase during membrane depolarization provide a measurement of channel activity.
The commercially available HEK293/TREx line (Invitrogen) was stably transfected with a TRPC6 construct and screened by conventional calcium imaging to find clones with TRPC6 expression following stimulation with 1 μg/ml tetracycline. These cells were maintained in the growth medium recommended by the manufacturer supplemented with 100 μg/ml hygromycin to promote retention of the TRPC6 construct. After growing to near confluency, cells were plated at a density of ^˜35,000 cells/well in 384 well CellBind plates (Corning) in the presence of 1 μg/ml tetracycline, and allowed to grow for 20-30 hrs. A nearly confluent monolayer resulted. Growth media was removed from the wells and cells were then loaded with […] Fluo4/AM diluted in Ringer's Solution (6.5 g NaCl, 0.42 g KCl, 0.25 g CaCl2) and 0.2 g of sodium bicarbonate; pH 7.4) supplemented with 1% Pluronic F-127 to a final concentration of 0.5 μM and incubated for 60 min, at room temperature. Dye solution was then removed from the cells by inverting plates with a sharp flick, and replaced with 25 μl Ringer's. Following ^˜0.5 hour for recovery from loading, cells were assayed using the Hamamatsu FDSS 6000 system, which permitted illumination at 485 nm. Frames were acquired at a rate of 0.2 Hz. During the assay, the plates were continuously vortexed, with pipette mixing of wells following addition of each reagent. For the screening assay, 26 μl of a diluted compound stock (at 50 μM) was added to each well for 2 minutes following the collection of a short (4 frame) baseline. 13 μl of agonist solution consisting of 125 nM GSK1702934A diluted in high-Ca2+Ringer solution (containing 90 mm Ca2+) was then added to each well, achieving a final concentration of 20 mm Ca2+ and 10 μM test compound. Data was collected for ^˜3 minutes following addition of high Ca2+Ringer. The fluorescent ratio for each well was divided by the initial fluorescent intensity for that well and the overall response was determined by averaging the fluorescent ratio of the last 4 frames acquired during the experiment excepting the final frame. Negative and Positive controls were included on each plate. Negative controls wells consisted of HEK293/TREx TRPC6 cells exposed to assay buffer and agonist solution, but no test compound. Positive control consisted of wells consisted of HEK293/TREx TRPC6 cells exposed to 25 μM 3-[(2-chlorophenoxy)methyl]phenyl piperidyl ketone (Chembridge) diluted in Ringer's solution and agonist solution. These controls defined zero percent and 100 percent block respectively, and intensity of each well was normalized to these values.
Compounds were tested in triplicate at all concentrations. Standard software was used to fit IC50 curves.

TRPC6, sequence (Q9Y210 whole entry, species assumed): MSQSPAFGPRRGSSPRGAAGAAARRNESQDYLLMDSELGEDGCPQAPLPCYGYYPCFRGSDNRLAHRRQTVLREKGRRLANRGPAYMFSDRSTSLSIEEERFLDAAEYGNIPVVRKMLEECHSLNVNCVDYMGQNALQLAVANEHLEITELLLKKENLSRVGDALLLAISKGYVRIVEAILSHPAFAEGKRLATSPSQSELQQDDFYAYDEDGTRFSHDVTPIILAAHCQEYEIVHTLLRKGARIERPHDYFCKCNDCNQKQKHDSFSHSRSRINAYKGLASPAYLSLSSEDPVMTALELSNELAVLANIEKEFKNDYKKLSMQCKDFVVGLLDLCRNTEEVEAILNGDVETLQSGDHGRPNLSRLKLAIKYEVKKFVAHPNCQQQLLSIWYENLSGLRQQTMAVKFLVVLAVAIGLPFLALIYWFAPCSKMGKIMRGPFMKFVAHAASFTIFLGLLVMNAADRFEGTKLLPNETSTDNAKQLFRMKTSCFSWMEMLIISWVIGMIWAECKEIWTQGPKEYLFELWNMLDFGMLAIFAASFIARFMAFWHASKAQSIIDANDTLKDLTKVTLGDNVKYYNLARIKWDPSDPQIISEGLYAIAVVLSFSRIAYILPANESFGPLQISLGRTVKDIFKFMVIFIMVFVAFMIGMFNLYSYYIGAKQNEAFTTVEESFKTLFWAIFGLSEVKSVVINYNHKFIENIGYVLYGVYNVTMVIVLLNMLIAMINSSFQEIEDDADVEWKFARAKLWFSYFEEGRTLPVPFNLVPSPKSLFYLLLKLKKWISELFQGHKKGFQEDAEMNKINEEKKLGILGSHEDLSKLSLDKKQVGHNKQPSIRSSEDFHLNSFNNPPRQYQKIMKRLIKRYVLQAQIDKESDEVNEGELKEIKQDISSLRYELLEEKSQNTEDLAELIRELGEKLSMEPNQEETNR

Question: With COC[C@H]1CN(c2cnc(N)cc2OC)CCN1C(=O)c1cc(OC)c(Oc2ccccc2)cn1 [Compound 27, [(R)-4-(6-Amino-4-methoxy-pyridin-3-yl)-2-methoxymethyl-piperazin-1-yl]-(4-methoxy-5-phenoxy-pyridin-2-yl)-methanone] as the compound, how does the pIC50 read?
Answer: The pIC50 was 7.12.

Question: How did the pIC50 turn out when COc1ccc(Oc2cnc(C(=O)N3CCC(c4nnc(N)cc4OC)CC3)cc2OC)cc1 [Compound 66, [4-(6-Amino-4-methoxy-pyridazin-3-yl)-piperidin-1-yl]-[4-methoxy-5-(4-methoxy-phenoxy)-pyridin-2-yl]-methanone] was run?
Answer: Its pIC50 is 6.08.

Question: How did the pIC50 turn out when COc1cc(C(=O)N2CCC(c3ccc(N)nn3)CC2)ncc1OCCc1ccccc1 [Compound 73, [4-(6-Amino-pyridazin-3-yl)-piperidin-1-yl]-(4-methoxy-5-phenethyloxy-pyridin-2-yl)-methanone] was run?
Answer: The pIC50 was 5.89.

Question: With COc1cc(C(=O)N2CCC(c3cnc(N)cc3OC)CC2)ncc1O[C@H](C)C1CC1 [Compound 77, (6-Amino-4-methoxy-3′,4′,5′,6′-tetrahydro-2′H-[3,4′]bipyridinyl-1′-yl)-[5-((R)-1-cyclopropyl-ethoxy)-4-methoxy-pyridin-2-yl]-methanone] as the compound, how does the pIC50 read?
Answer: Its pIC50 is 5.66.

Question: COc1cc(C(=O)N2CCN(c3cnc(N)cc3OC)C[C@H]2CO)ncc1Oc1ccccc1 [Compound 71, [(S)-4-(6-Amino-4-methoxy-pyridin-3-yl)-2-hydroxymethyl-piperazin-1-yl]-(4-methoxy-5-phenoxy-pyridin-2-yl)-methanone] was tested. Which pIC50 did it give?
Answer: Its pIC50 is 6.07.

Question: How did the pIC50 turn out when COc1cc(C(=O)N2CCC(c3nnc(N)cc3C)CC2)ncc1OCC1CC1 [Compound 78, [4-(6-Amino-4-methyl-pyridazin-3-yl)-piperidin-1-yl]-(5-cyclopropylmethoxy-4-methoxy-pyridin-2-yl)-methanone] was run?
Answer: The pIC50 was 5.55.

Question: With CCOc1cc(C(=O)N2CCC(c3ccc(N)nn3)CC2)ncc1Oc1ccccc1 [Compound 83, [4-(6-Amino-pyridazin-3-yl)-piperidin-1-yl]-[5-(phenoxy)-4-ethoxy-pyridin-2-yl]-methanone] as the compound, how does the pIC50 read?
Answer: The pIC50 was 7.01.

Question: COc1cc(C(=O)N2CCC(c3cnc(N)cc3OC)CC2)ncc1OCc1ccc(F)cc1 [Compound 32, (6-Amino-4-methoxy-3′,4′,5′,6′-tetrahydro-2′H-[3,4′]bipyridinyl-1′-yl)-[5-(4-fluoro-benzyloxy)-4-methoxy-pyridin-2-yl]-methanone] was tested. Which pIC50 did it give?
Answer: The pIC50 was 6.89.

Question: How did the pIC50 turn out when CCOc1cc(N)nnc1C1CCN(C(=O)c2cc(OC)c(Oc3ccc(C(F)(F)F)cc3)cn2)CC1 [Compound 87] was run?
Answer: Its pIC50 is 6.21.

Question: With COc1cc(C(=O)N2CCC(c3cnc(N)cc3OC)CC2)ncc1OC1CCCCC1 [Compound 30, (6-Amino-4-methoxy-3′,4′,5′,6′-tetrahydro-2′H-[3,4′]bipyridinyl-1′-yl)-(5-cyclohexyloxy-4-methoxy-pyridin-2-yl)-methanone] as the compound, how does the pIC50 read?
Answer: Its pIC50 is 6.96.

Question: How did the pIC50 turn out when COc1cc(C(=O)N2CCN(c3cnc(N)cc3C)C[C@@H]2CO)ncc1Oc1ccc(F)cc1 [Compound 7, [(R)-4-(6-Amino-4-methyl-pyridin-3-yl)-2-hydroxymethyl-piperazin-1-yl]-[5-(4-fluoro-phenoxy)-4-methoxy-pyridin-2-yl]-methanone] was run?
Answer: Its pIC50 is 7.57.

Question: How did the pIC50 turn out when COc1cc(C(=O)N2CCC(c3ccc(N)nn3)CC2)ncc1Oc1ccc(OC(F)F)cc1 [Compound 54, [4-(6-Amino-pyridazin-3-yl)-piperidin-1-yl]-[5-(4-difluoromethoxy-phenoxy)-4-methoxy-pyridin-2-yl]-methanone] was run?
Answer: Its pIC50 is 6.66.

Question: COc1cc(C(=O)N2CCN(c3cnc(N)cc3OC)CC23CC3)ncc1Oc1ccccc1 [Compound 8, [7-(6-Amino-4-methoxy-pyridin-3-yl)-4,7-diaza-spiro[2.5]oct-4-yl]-(4-methoxy-5-phenoxy-pyridin-2-yl)-methanone] was tested. Which pIC50 did it give?
Answer: The pIC50 was 7.57.

Question: COc1cc(C(=O)N2CCN(c3cnc(N)cc3OC)CC2)ncc1Oc1ccccc1 [Compound 5, [4-(6-Amino-4-methoxy-pyridin-3-yl)-piperazin-1-yl]-(4-methoxy-5-phenoxy-pyridin-2-yl)-methanone] was tested. Which pIC50 did it give?
Answer: The pIC50 was 7.57.

Question: How did the pIC50 turn out when COc1cc(C(=O)N2CCC(c3cnc(N)cc3OC)CC2)ncc1OCCc1ccccc1 [Compound 52, (6-Amino-4-methoxy-3′,4′,5′,6′-tetrahydro-2′H-[3,4′]bipyridinyl-1′-yl)-(4-methoxy-5-phenethyloxy-pyridin-2-yl)-methanone] was run?
Answer: The pIC50 was 6.72.

Question: With COc1cc(N)nnc1C1CCN(C(=O)c2ccc(Oc3ccc(C(F)(F)F)cc3)cn2)CC1 [Compound 91, 5-Methoxy-6-(1-{5-[4-(trifluoromethyl)phenoxy]pyridine-2-carbonyl}piperidin-4-yl)pyridazin-3-amine trifluoroacetic acid] as the compound, how does the pIC50 read?
Answer: The pIC50 was 6.38.

Question: How did the pIC50 turn out when COc1cc(C(=O)N2CCC(c3nnc(N)cc3C)CC2)ncc1Oc1ccc(C(F)(F)F)cc1 [Compound 90, 6-(1-{4-Methoxy-5-[4-(trifluoromethyl)phenoxy]pyridine-2-carbonyl}piperidin-4-yl)-5-methylpyridazin-3-amine trifluoroacetic acid] was run?
Answer: The pIC50 was 6.44.

Question: How did the pIC50 turn out when COc1cc(C(=O)N2CCC(c3ccc(N)nn3)CC2)ncc1OC1CCCCC1 [Compound 62, [4-(6-Amino-pyridazin-3-yl)-piperidin-1-yl]-(5-cyclohexyloxy-4-methoxy-pyridin-2-yl)-methanone] was run?
Answer: Its pIC50 is 6.26.

Question: With CCOc1cnc(C(=O)N2CCC(c3cnc(N)cc3OC)CC2)cc1OC [Compound 65, (6-Amino-4-methoxy-3′,4′,5′,6′-tetrahydro-2′H-[3,4′]bipyridinyl-1′-yl)-(5-ethoxy-4-methoxy-pyridin-2-yl)-methanone] as the compound, how does the pIC50 read?
Answer: The pIC50 was 6.08.

Question: COc1cc(C(=O)N2CCC(c3ccc(N)nc3)CC2)ncc1Oc1ccccc1 [Compound 3, (6-Amino-3′,4′,5′,6′-tetrahydro-2′H-[3,4′]bipyridinyl-1′-yl)-(4-methoxy-5-phenoxy-pyridin-2-yl)-methanone] was tested. Which pIC50 did it give?
Answer: Its pIC50 is > 7.57.

Question: How did the pIC50 turn out when CCOc1cc(C(=O)N2CCC(c3ccc(N)nn3)CC2)ncc1Oc1ccc(F)cc1 [Compound 88, [4-(6-Amino-pyridazin-3-yl)-piperidin-1-yl]-[5-(4-fluoro-phenoxy)-4-ethoxy-pyridin-2-yl]-methanone] was run?
Answer: The pIC50 was 6.12.

Question: COc1cc(C(=O)N2CCC(c3ccc(N)nn3)CC2)ncc1OCc1ccc(F)cc1 [Compound 41, [4-(6-Amino-pyridazin-3-yl)-piperidin-1-yl]-[5-(4-fluoro-benzyloxy)-4-methoxy-pyridin-2-yl]-methanone] was tested. Which pIC50 did it give?
Answer: Its pIC50 is 6.74.

Question: COc1cc(C(=O)N2CCC(c3nnc(N)cc3OC)CC2)ncc1Oc1ccccc1 [Compound 47, 5-Methoxy-6-[1-(4-methoxy-5-phenoxypyridine-2-carbonyl)piperidin-4-yl]pyridazin-3-amine] was tested. Which pIC50 did it give?
Answer: Its pIC50 is 6.66.

Question: With CCCOc1cnc(C(=O)N2CCC(c3cnc(N)cc3OC)CC2)cc1OC [Compound 46, (6-Amino-4-methoxy-3′,4′,5′,6′-tetrahydro-2′H-[3,4′]bipyridinyl-1′-yl)-(4-methoxy-5-propoxy-pyridin-2-yl)-methanone] as the compound, how does the pIC50 read?
Answer: The pIC50 was 6.80.

Question: COc1ccc(Oc2cnc(C(=O)N3CCC(c4ccc(N)nn4)CC3)cc2OC)cc1 [Compound 44, [4-(6-Amino-pyridazin-3-yl)-piperidin-1-yl]-[4-methoxy-5-(4-methoxy-phenoxy)-pyridin-2-yl]-methanone] was tested. Which pIC50 did it give?
Answer: The pIC50 was 6.85.

Question: With COc1ccc(Oc2cnc(C(=O)N3CCN(c4ccc(N)nc4)CC3)cc2OC)cc1 [Compound 12, [4-(6-Amino-pyridin-3-yl)-piperazin-1-yl]-[4-methoxy-5-(4-methoxy-phenoxy)-pyridin-2-yl]-methanone] as the compound, how does the pIC50 read?
Answer: The pIC50 was 7.57.

Question: COc1cc(C(=O)N2CCC(c3ccc(N)nn3)CC2)ncc1Oc1ccccc1 [Compound 16, [4-(6-Amino-pyridazin-3-yl)-piperidin-1-yl]-(4-methoxy-5-phenoxy-pyridin-2-yl)-methanone] was tested. Which pIC50 did it give?
Answer: Its pIC50 is 7.57.

Question: COc1ccc(Oc2cnc(C(=O)N3CCN(c4ccc(N)nc4)C[C@@H]3CO)cc2OC)cc1 [Compound 82, [(R)-4-(6-Amino-pyridin-3-yl)-2-hydroxymethyl-piperazin-1-yl]-[4-methoxy-5-(4-methoxy-phenoxy)-pyridin-2-yl]-methanone] was tested. Which pIC50 did it give?
Answer: The pIC50 was 6.74.
